According to patent US6409810B1, “Water-soluble trisazo compounds, aqueous ink composition and colored article” (Nippon Kayaku Kabushiki Kaisha, priority 1997, dated 2002):

Columns and labels:
Format in all cases: physicochemical
[1] = Test for resistance to light of the recorded images (carbon arc fade meter, Blue Scale JIS L-0841); settings: 20 hours carbon arc fade meter; for light fastness (rank) ink jet paper A: ink jet print on ink jet paper A (Color BJ Paper LC 101, Canon); for light fastness (rank) ink jet paper B: ink jet print on ink jet paper B (coated paper STX73 A4, Sharp); for light fastness (rank) plain paper: ink jet print on plain paper (Canon TLB5A4S)
Experimental: (§1) A liquid having the following formulation was prepared and passed through a 0.45 μm membrane filter to obtain an aqueous ink composition for ink jet printers.
(§2) An ink jet recording was conducted on three different papers, i.e. plain papers (Canon printer paper A4 (TLB5A4S)), ink jet papers A (Color BJ Paper LC 101; ex. Canon) and ink jet papers B (coated papers for ink jet printer STX73 A4; ex. Sharp) by means of an ink jet printer (trade name NOVA JET III; ex. ENCAD). The thus-recorded images were tested with respect to the resistances to light and water and a color rendering property.
The recorded images were irradiated with light for 20 hours by means of a carbon arc fade meter (ex. SUGA Shikenkisha). Light fastness was judged according to the Blue Scale for light resistance standard as defined in JIS L-0841.

[2] = Test for resistance to water of the recorded images (immersion in water, visual examination of dropout); set-up: key to water fastness plain paper: ∘: Less amount of the compound was dropped out.; Δ: About half of the compound was dropped out.; X: Large amount of the compound was dropped out; settings: immersed in water 2 minutes with mild stirring, dried; for water fastness ink jet paper A: ink jet print on ink jet paper A; for water fastness ink jet paper B: ink jet print on ink jet paper B; for water fastness plain paper: ink jet print on plain paper
Experimental: as §1, §2
Test specimen was immersed in water contained in a beaker with mild stirring for 2 minutes and dried. Amount of the compound was observed by the visual examination before and after the immersion, and dropout of the compound was judged.

[3] = Color rendering property (hue change under tungsten light versus standard light source, visual); settings: hue change under tungsten light compared with standard light source
Experimental: as §1, §2
Discoloration was judged by the visual examination by comparing the hue change under the tungsten light with that under the standard light source.

light fastness (rank) ink jet paper A [1] [rank] | light fastness (rank) ink jet paper B [1] [rank] | light fastness (rank) plain paper [1] | water fastness ink jet paper A [2] | water fastness ink jet paper B [2] | water fastness plain paper [2] | color rendering property [3] | Structure (SMILES)
5 | 5 | 5 rank | ◯ | ◯ | Δ | ◯ | COc1cc(N=Nc2cc(S(=O)(=O)O)cc3cc(S(=O)(=O)O)cc(O)c23)c(NC(C)=O)cc1N=Nc1c(S(=O)(=O)O)cc2cc(S(=O)(=O)O)c(N=Nc3cc(S(=O)(=O)O)c(N)cc3N)cc2c1O [compound 0234]
4 | 5 | 4-5 rank | ◯ | ◯ | ◯ | ◯ | COc1cc(N=Nc2cc(S(=O)(=O)O)cc3cc(S(=O)(=O)O)cc(O)c23)c(N)cc1N=Nc1c(S(=O)(=O)O)cc2cc(S(=O)(=O)O)c(N=Nc3ccc(N)cc3O)cc2c1O [compound 0264]
